How the values were obtained:
MDR1 = assay: MDCK-MDR1 permeability assay (BBB penetration potential); assay type: in vitro ADME; details: dog; for efflux ratio at 120 min, 5 μM: MDCK-MDR1, pH 7.4, MDCK-MDR1: Efflux; for Papp A→B at 120 min, 5 μM: MDCK-MDR1, pH 7.4, MDCK-MDR1: Papp A-B; for Papp B→A at 120 min, 5 μM: MDCK-MDR1, pH 7.4, MDCK-MDR1: Papp B-A
Protocol: (§1) Each determination is performed in duplicate. […] Analytical conditions are outlined below.

[1] = tested on: MDR1-MDCK cell monolayers; assay: as above; assay type: in vitro ADME; details: dog, MDCK-MDR1, 120 min, 5 μM, pH 7.4
Protocol: as §1

mHTT protein = mHTT protein assay (2B7-MW1, Mesoscale Discovery); assay type: cell-based, human; details: GM04724 (CAG 70/20) Huntington's disease patient lymphoblast cells, 48 hours, 2B7-MW1 MSD; read-out: HTT Potency - Protein EC50 mHTT (average)
Protocol: Compounds are tested on GM04724 (CAG 70/20) Huntington's disease patient lymphoblast cells at doses ranging from 10 μM to 0.6 nM. 4,500 cells/well are seeded in 384 well plates. One plate replica is carried out for parallel viability testing by CellTiter Glo (CTG). Compounds are incubated for 48 hours, mHTT protein levels are assessed by the 2B7-MW1 assay via Mesoscale Discovery (MSD) as previously reported (Macdonald et al., 2014). The antibody pair is comprised of previously characterized monoclonals (2B7 and MW1) interrogating two regions for HTT conformation and biological properties: the N17 domain and the polyQ domain (Baldo et al., 2012; Ko et., 2001). 2B7-MW1 is dependent on subject/animal specific levels of HTT at the time of treatment. 2B7-MW1 is dependent on polyQ expansion (e.g., the higher the expansion the higher the signal) and on mHTT size (e.g., a similar polyQ will give higher signal with smaller HTT size). The viability readout is carried out by CTG according to the manufacturer's instructions.

Row | Compound | efflux ratio at 120 min, 5 μM (MDR1) | Papp A→B at 120 min, 5 μM (MDR1) [×10⁻⁶ cm/s] | Papp B→A at 120 min, 5 μM (MDR1) [×10⁻⁶ cm/s] | MDCK-MDR1: % Recov A-B [1] [%] | MDCK-MDR1: % Recov B-A [1] [%] | EC50 (mHTT protein) [nM] | MDCK-MDR1: Efflux [1] | MDCK-MDR1: Papp A-B [1] | MDCK-MDR1: Papp B-A [1]
1 | C[C@]12CCC[C@](C)(N1)[C@H](F)[C@H](Oc1ccc(-c3ccc(C#N)cc3O)nn1)C2 (single isomer, unassigned) [145-ENT1] | 4 | 9.39 | 42 | 82 | 87 | 501 to 10000 | – | – | –
2 | Oc1cc(-n2cccn2)ccc1-c1ccc(O[C@@H]2C[C@H]3CC[C@H](N3)[C@@H]2F)nn1 (single isomer, unassigned) [35-ENT1] | 4 | 8.31 | 32.8 | 77 | 87 | 101 to 500 | – | – | –
3 | Oc1cc2cccnc2cc1-c1ccc(O[C@H]2C[C@@H]3CCC[C@@H](N3)[C@H]2F)nn1 (single isomer, unassigned) [105-ENT2] | 6 | 6.58 | 37.2 | 91 | 70 | 101 to 500 | – | – | –
4 | Oc1cc(-n2ccnc2)ccc1-c1ccc(O[C@H]2C[C@@H]3CC(F)(F)[C@H](C2)N3)nn1 (single isomer, unassigned) [51-ENT2] | 2 | 25.8 | 46.7 | 86 | 90 | 501 to 10000 | – | – | –
5 | C[C@]12CC[C@](C)(N1)[C@H](F)[C@H](Oc1ccc(-c3ccc(C#N)cc3O)nn1)C2 (single isomer, unassigned) [152-ENT1] | 5 | 11.6 | 59.4 | 88 | 98 | 501 to 10000 | – | – | –
6 | Oc1cc2ncccc2cc1-c1ccc(O[C@H]2C[C@@H]3CCC[C@@H](N3)[C@H]2F)nn1 (single isomer, unassigned) [103-ENT2] | 12 | 5.15 | 59.9 | 98 | 106 | 501 to 10000 | – | – | –
7 | Oc1cc(-c2ccc3nccn3c2)ccc1-c1ccc(O[C@H]2C[C@@H]3CCC[C@@H](N3)[C@H]2F)nn1 (single isomer, unassigned) [84-ENT2] | 14 | 1.63 | 22.8 | 43 | 73 | 16 to 50 | – | – | –
8 | Cn1cc(-c2ccc(-c3ccc(O[C@H]4C[C@H]5CCC[C@H](N5)[C@H]4F)nn3)c(O)c2)cn1 (single isomer, unassigned) [122-ENT1] | 5 | 4.73 | 23.3 | 50 | 66 | 501 to 10000 | – | – | –
9 | O=c1cc(-c2ccc(-c3ccc(O[C@@H]4C[C@H]5CCC[C@H](N5)[C@@H]4F)nn3)c(O)c2)ccn1CF (single isomer, unassigned) [106-ENT1] | 48 | 1.07 | 51 | 102 | 90 | 101 to 500 | – | – | –
10 | O=c1cc(-c2cc(O)c(-c3ccc(O[C@H]4C[C@@H]5CCC[C@@H](N5)[C@H]4F)nn3)cc2F)cc[nH]1 (single isomer, unassigned) [57-ENT2] | 90 | 0.35 | 31.3 | 77 | 87 | 101 to 500 | – | – | –
11 | Oc1cc(-c2cnn3ccccc23)ccc1-c1ccc(O[C@H]2C[C@@H]3CCC[C@@H](N3)[C@H]2F)nn1 (single isomer, unassigned) [91-ENT2] | 2 | 4.4 | 10.5 | 30 | 48 | 501 to 10000 | – | – | –
12 | Oc1cc(-c2cnn3ccccc23)ccc1-c1ccc(O[C@@H]2C[C@H]3CCC[C@H](N3)[C@@H]2F)nn1 (single isomer, unassigned) [91-ENT1] | 3 | 4.52 | 15.5 | 30 | 57 | 101 to 500 | – | – | –
13 | Cc1nc(-c2ccc(-c3ccc(O[C@H]4C[C@@H]5CCC[C@@H](N5)[C@H]4F)nn3)c(O)c2)co1 (single isomer, unassigned) [92-ENT2] | 9 | 6.04 | 54.6 | 72 | 89 | 101 to 500 | – | – | –
14 | Cn1cc(-c2ccc(-c3ccc(O[C@H]4C[C@@H]5CCC[C@@H](N5)[C@H]4F)nn3)c(O)c2)c(F)n1 (single isomer, unassigned) [109-ENT2] | 4 | 6.3 | 24.5 | 51 | 80 | 16 to 50 | – | – | –
15 | Cc1ncn(-c2ccc(-c3ccc(O[C@@H]4C[C@H]5CCC[C@H](N5)[C@@H]4F)nn3)c(O)c2)n1 (single isomer, unassigned) [70-ENT1] | 7 | 6.62 | 44.6 | 93 | 99 | 101 to 500 | – | – | –
16 | O=c1cc(-c2ccc(-c3ccc(O[C@H]4C[C@@H]5CCC[C@@H](N5)[C@H]4F)nn3)c(O)c2)ccn1CF (single isomer, unassigned) [106-ENT2] | 39 | 1.45 | 56.7 | 79 | 80 | 51 to 100 | – | – | –
17 | Cn1cnc(-c2ccc(-c3ccc(O[C@H]4C[C@@H]5CCC[C@@H](N5)[C@H]4F)nn3)c(O)c2)cc1=O (single isomer, unassigned) [138-ENT2] | 32 | 1.88 | 60.7 | 92 | 91 | 101 to 500 | – | – | –
18 | Oc1cc(-n2ccnn2)ccc1-c1ccc(O[C@@H]2C[C@H]3CCC[C@H](N3)[C@@H]2F)nn1 (single isomer, unassigned) [69-ENT1] | 5 | 9.2 | 47.6 | 89 | 93 | 101 to 500 | – | – | –
19 | Oc1cc(-c2nnco2)c(F)cc1-c1ccc(O[C@@H]2C[C@H]3CCC[C@H](N3)[C@@H]2F)nn1 (single isomer, unassigned) [143-ENT2] | 8 | 6.91 | 54.8 | 81 | 87 | 51 to 100 | – | – | –
20 | Oc1cc(-c2nnco2)c(F)cc1-c1ccc(O[C@@H]2C[C@H]3CC[C@H](N3)[C@@H]2F)nn1 (single isomer, unassigned) [142-ENT2] | 6 | 9.4 | 54.5 | 101 | 121 | 51 to 100 | – | – | –
21 | Cn1ccc(-c2ccc(-c3ccc(O[C@H]4C[C@@H]5CCC[C@@H](N5)[C@H]4F)nn3)c(O)c2)nc1=O (single isomer, unassigned) [107-ENT2] | 100 | 0.11 | 11.2 | 97 | 103 | 101 to 500 | – | – | –
22 | Cc1cc(-c2ccc(-c3ccc(O[C@H]4C[C@@H]5CCC[C@@H](N5)[C@H]4F)nn3)c(O)c2)cnn1 (single isomer, unassigned) [90-ENT2] | 34 | 1.92 | 64.6 | 101 | 97 | 101 to 500 | – | – | –
23 | Oc1cc(-c2ccccn2)ccc1-c1ccc(O[C@H]2C[C@@H]3CCC[C@@H](N3)[C@H]2F)nn1 (single isomer, unassigned) [77-ENT2] | 5 | 6.32 | 30.2 | 57 | 79 | 101 to 500 | – | – | –
24 | C[C@@]12CCC[C@@](C)(N1)[C@@H](F)[C@@H](Oc1ccc(-c3ccc(C#N)cc3O)nn1)C2 (single isomer, unassigned) [145-ENT2] | 8 | 7.75 | 58.9 | 89 | 100 | 501 to 10000 | – | – | –
25 | Cc1nocc1-c1ccc(-c2ccc(O[C@H]3C[C@@H]4CCC[C@@H](N4)[C@H]3F)nn2)c(O)c1 (single isomer, unassigned) [72-ENT1] | – | – | – | 74 | 93 | 101 to 500 | 9 | 5.74 10^−6, cm/s | 51 10^−6, cm/s
